Measurements as given in patent US6737383B1, “Herbicidal oxadiazolidines” (priority 1999, dated 2004).

Legend:
rape = experiment: Test B pre/postemergence rape; type: in vivo, Brassica napus
In short: (§1)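 Response is a visual 0-to-10 score relative to untreated plants, where 0 means no effect and 10 means complete control, taken twelve to sixteen days after application. Treatments went onto soil at planting and onto foliage of 1- to 4-leaf plants, using a surfactant-containing non-phytotoxic solvent.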

smallflower flatsedge = experiment: Test B flood test smallflower flatsedge; type: in vivo, Cyperus difformis
In short: (§2)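 Plants were grown to the 2-leaf stage before treatment with test chemical, then held in a greenhouse for twelve to sixteen days. Injury was visually rated against untreated controls on a 0–10 scale, where 0 is no effect and 10 is complete control.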

sugar beet = experiment: Test B pre/postemergence sugar beet; type: in vivo, Beta vulgaris
In short: as §1

pigweed = experiment: Test B pre/postemergence pigweed; type: in vivo, Amaranthus retroflexus
In short: as §1

rice = experiment: Test B flood test rice; type: in vivo, Oryza sativa
In short: as §2

velvetleaf = experiment: Test B pre/postemergence velvetleaf; type: in vivo, Abutilon theophrasti
In short: as §1

cocklebur = experiment: Test B pre/postemergence cocklebur; type: in vivo, Xanthium strumarium
In short: as §1

wild oat = experiment: Test B pre/postemergence wild oat; type: in vivo, Avena fatua
In short: as §1

purple nutsedge = experiment: Test B pre/postemergence purple nutsedge; type: in vivo, Cyperus rotundus
In short: as §1

blackgrass = experiment: Test B pre/postemergence blackgrass; type: in vivo, Alopecurus myosuroides
In short: as §1

giant foxtail = experiment: Test B pre/postemergence giant foxtail; type: in vivo, Setaria faberii
In short: as §1

soybean = experiment: Test B pre/postemergence soybean; type: in vivo, Glycine max
In short: as §1

crabgrass = experiment: Test B pre/postemergence crabgrass; type: in vivo, Digitaria sanguinalis
In short: as §1

surinam grass = experiment: Test B pre/postemergence surinam grass; type: in vivo, Brachiaria decumbens
In short: as §1

corn = experiment: Test B pre/postemergence corn; type: in vivo, Zea mays
In short: as §1

wheat = experiment: Test B pre/postemergence wheat; type: in vivo, Triticum aestivum
In short: as §1

bamyardgrass = experiment: Test B flood test barnyardgrass; type: in vivo, Echinochloa crus-galli
In short: as §2

duck salad = experiment: Test B flood test duck salad; type: in vivo, Heteranthera limosa
In short: as §2

morningglory = experiment: Test B pre/postemergence morningglory; type: in vivo, Ipomoea hederacea
In short: as §1

[1] = Postemergence, Rate 62 g/ha, scale 0 to 10, 0 is no effect, 10 is complete control
[2] = Postemergence, Rate 125 g/ha, scale of 0 to 10 where 0 is no effect and 10 is complete control
[3] = Postemergence, Rate 250 g/ha, scale of 0 to 10, 0 is no effect, 10 is complete control
[4] = Postemergence, Rate 500 g/ha, scale of 0 to 10 where 0 is no effect and 10 is complete control
[5] = Preemergence, Rate 62 g/ha, scale of 0 to 10 where 0 is no effect and 10 is complete control
[6] = Preemergence, Rate 500 g/ha, scale of 0 to 10 where 0 is no effect and 10 is complete control
[7] = Rate 62 g/ha, flood test species, Pre-emergence, visual evaluation after twelve to sixteen days
[8] = Rate 125 g/ha, under heading Pre-emergence, flood test species, visual evaluation after twelve to sixteen days
[9] = Rate 250 g/ha, Pre-emergence (flood test species), scale 0 to 10, 0 is no effect, 10 is complete control
[10] = Rate 500 g/ha, Pre-emergence section of Table B, 0 to 10 scale (0 no effect, 10 complete control)
[11] = Preemergence, Rate 125 g/ha, scale of 0 to 10 where 0 is no effect and 10 is complete control
[12] = Preemergence, Rate 250 g/ha, scale 0 to 10 (0 no effect, 10 complete control)

CC(C)N(C(=O)n1oc(=O)n(CC(=O)C2CCC2)c1=O)c1ccccc1 [Compound 641]
Plant response rating, Rape (rape; [1]): 0
Plant response rating, Rape (rape; [2]): 0
Rape plant response rating (rape; [3]): 0
Plant response rating, Rape (rape; [4]): 0
Rape plant response rating (rape; [5]): 0
Plant response rating, Rape (rape; [6]): 0
Plant response rating, S. Flatsedge (0 to 10 scale, 0 is no effect, 10 is complete control) (smallflower flatsedge; [7]): 0
S. Flatsedge plant response rating (0 to 10 scale, 0 is no effect, 10 is complete control) (smallflower flatsedge; [8]): 0
S. Flatsedge plant response rating (smallflower flatsedge; [9]): 0
S. Flatsedge plant response rating (smallflower flatsedge; [10]): 0
Plant response rating, Sugarbeets (sugar beet; [1]): 0
Plant response rating, Sugarbeets (sugar beet; [2]): 0
Sugarbeets plant response rating (sugar beet; [3]): 0
Sugarbeets plant response rating (sugar beet; [5]): 0
Sugarbeets plant response rating (sugar beet; [11]): 0
Plant response rating, Sugarbeets (sugar beet; [12]): 0
Plant response rating, Sugarbeets (sugar beet; [6]): 0
Plant response rating, Redroot pigweed (pigweed; [2]): 0
Redroot pigweed plant response rating (pigweed; [3]): 3
Redroot pigweed plant response rating (pigweed; [5]): 0
Redroot pigweed plant response rating (pigweed; [11]): 0
Plant response rating, Redroot pigweed (pigweed; [12]): 0
Plant response rating, Redroot pigweed (pigweed; [6]): 7
Plant response rating, Rice (0 to 10 scale, 0 is no effect, 10 is complete control) (rice; [7]): 0
Rice plant response rating (0 to 10 scale, 0 is no effect, 10 is complete control) (rice; [8]): 0
Rice plant response rating (rice; [9]): 0
Rice plant response rating (rice; [10]): 0
Plant response rating, Velvetleaf (velvetleaf; [1]): 0
Plant response rating, Velvetleaf (velvetleaf; [2]): 0
Velvetleaf plant response rating (velvetleaf; [3]): 0
Velvetleaf plant response rating (velvetleaf; [5]): 0
Velvetleaf plant response rating (velvetleaf; [11]): 0
Plant response rating, Velvetleaf (velvetleaf; [12]): 0
Plant response rating, Velvetleaf (velvetleaf; [6]): 0
Plant response rating, Cocklebur (cocklebur; [1]): 0
Plant response rating, Cocklebur (cocklebur; [2]): 0
Cocklebur plant response rating (cocklebur; [3]): 0
Plant response rating, Cocklebur (cocklebur; [4]): 0
Cocklebur plant response rating (cocklebur; [5]): 0
Cocklebur plant response rating (cocklebur; [11]): 0
Plant response rating, Cocklebur (cocklebur; [12]): 0
Plant response rating, Cocklebur (cocklebur; [6]): 0
Plant response rating, Wild oats (wild oat; [1]): 0
Plant response rating, Wild oats (wild oat; [2]): 1
Wild oats plant response rating (wild oat; [3]): 1
Wild oats plant response rating (wild oat; [5]): 0
Wild oats plant response rating (wild oat; [11]): 0
Plant response rating, Wild oats (wild oat; [12]): 0
Plant response rating, Wild oats (wild oat; [6]): 5
Plant response rating, Nutsedge (purple nutsedge; [1]): 0
Plant response rating, Nutsedge (purple nutsedge; [2]): 0
Nutsedge plant response rating (purple nutsedge; [3]): 4
Nutsedge plant response rating (purple nutsedge; [5]): 0
Nutsedge plant response rating (purple nutsedge; [11]): 0
Plant response rating, Nutsedge (purple nutsedge; [12]): 0
Plant response rating, Nutsedge (purple nutsedge; [6]): 3
Plant response rating, Blackgrass (blackgrass; [1]): 0
Plant response rating, Blackgrass (blackgrass; [2]): 0
Blackgrass plant response rating (blackgrass; [3]): 2
Plant response rating, Blackgrass (blackgrass; [4]): 6
Blackgrass plant response rating (blackgrass; [5]): 0
Blackgrass plant response rating (blackgrass; [11]): 0
Plant response rating, Blackgrass (blackgrass; [12]): 2
Plant response rating, Blackgrass (blackgrass; [6]): 8
Plant response rating, Giant foxtail (giant foxtail; [1]): 0
Plant response rating, Giant foxtail (giant foxtail; [2]): 0
Giant foxtail plant response rating (giant foxtail; [3]): 3
Plant response rating, Giant foxtail (giant foxtail; [4]): 6
Giant foxtail plant response rating (giant foxtail; [5]): 5
Giant foxtail plant response rating (giant foxtail; [11]): 9
Plant response rating, Giant foxtail (giant foxtail; [12]): 9
Plant response rating, Giant foxtail (giant foxtail; [6]): 9
Plant response rating, Soybean (soybean; [1]): 0
Plant response rating, Soybean (soybean; [2]): 0
Soybean plant response rating (soybean; [3]): 1
Soybean plant response rating (soybean; [5]): 0
Soybean plant response rating (soybean; [11]): 0
Plant response rating, Soybean (soybean; [12]): 0
Plant response rating, Soybean (soybean; [6]): 0
Plant response rating, Crabgrass (crabgrass; [1]): 0
Plant response rating, Crabgrass (crabgrass; [2]): 0
Crabgrass plant response rating (crabgrass; [3]): 3
Plant response rating, Crabgrass (crabgrass; [4]): 6
Crabgrass plant response rating (crabgrass; [5]): 0
Crabgrass plant response rating (crabgrass; [11]): 3
Plant response rating, Crabgrass (crabgrass; [12]): 7
Plant response rating, Crabgrass (crabgrass; [6]): 9
Plant response rating, B. signalgrass (surinam grass; [1]): 0
Plant response rating, B. signalgrass (surinam grass; [2]): 0
B. signalgrass plant response rating (surinam grass; [3]): 0
Plant response rating, B. signalgrass (surinam grass; [4]): 4
B. signalgrass plant response rating (surinam grass; [5]): 0
B. signalgrass plant response rating (surinam grass; [11]): 0
Plant response rating, B. signalgrass (surinam grass; [12]): 6
Plant response rating, B. signalgrass (surinam grass; [6]): 8
Plant response rating, Corn (corn; [1]): 0
Plant response rating, Corn (corn; [2]): 0
Corn plant response rating (corn; [3]): 0
Plant response rating, Corn (corn; [4]): 0
Corn plant response rating (corn; [5]): 0
Plant response rating, Corn (corn; [12]): 0
Plant response rating, Corn (corn; [6]): 2
Plant response rating, Wheat (wheat; [1]): 0
Plant response rating, Wheat (wheat; [2]): 0
Wheat plant response rating (wheat; [3]): 0
Wheat plant response rating (wheat; [5]): 0
Wheat plant response rating (wheat; [11]): 0
Plant response rating, Wheat (wheat; [12]): 0
Plant response rating, Wheat (wheat; [6]): 0
Plant response rating, Barnyardgrass (0 to 10 scale, 0 is no effect, 10 is complete control) (bamyardgrass; [7]): 0
Barnyardgrass plant response rating (0 to 10 scale, 0 is no effect, 10 is complete control) (bamyardgrass; [8]): 0
Barnyardgrass plant response rating (bamyardgrass; [9]): 0
Barnyardgrass plant response rating (bamyardgrass; [10]): 0
Plant response rating, Ducksalad (0 to 10 scale, 0 is no effect, 10 is complete control) (duck salad; [7]): 0
Ducksalad plant response rating (0 to 10 scale, 0 is no effect, 10 is complete control) (duck salad; [8]): 0
Ducksalad plant response rating (duck salad; [9]): 0
Ducksalad plant response rating (duck salad; [10]): 0
Plant response rating, Morningglory (morningglory; [1]): 0
Plant response rating, Morningglory (morningglory; [2]): 1
Morningglory plant response rating (morningglory; [3]): 7
Plant response rating, Morningglory (morningglory; [4]): 9
Morningglory plant response rating (morningglory; [5]): 0
Morningglory plant response rating (morningglory; [11]): 0
Plant response rating, Morningglory (morningglory; [12]): 0
Plant response rating, Morningglory (morningglory; [6]): 0
